We go through three compounds from US20180133148A1, “Degradable Microparticles for Protein and Small Molecule Delivery” (Georgia Tech Research Corporation, priority 2016, published 2018).

Data set [1] in a line: FTY720 loading and release from degradable heparin-based MPs (plate reader). Format: physicochemical. Here is the method:
FTY720 was loaded onto degradable heparin-based MPs. The amount of FTY720 that was loaded onto the MPs was then assayed via plate reader. In three separate groups, additional amounts of FTY720, i.e. 5 μg, 10 μg and 20 μg, were then added. […] For each of the three separate groups, the extent of FTY720 release was assayed via plate reader each day over 7 days. […] The black line refers to the batch with 20 μg added. The dark blue line refers to the batch with 10 μg added. The light blue line refers to the batch with 5 μg added.

For another data set, the system named is plasmin. Description: Plasmin inhibition assay (TSG-6 anti-plasmin activity). Format: biochemical. As to the method: To assess TSG-6 bioactivity after release from MPs, the plasmin inhibition assay protocol was followed with day 1 TSG-6 release supernatant (11 ng/mL) and compared to a soluble TSG-6 control at the same concentration (11 ng/mL); n=3-5.
Without wishing to be bound by theory, it may be that the sulfate groups removed, the N sulfate group for Hep^−N and the N and […] for Hep−, are necessary for complete heparin binding to TSG-6 and the subsequent enhancement of TSG-6 bioactivity.

The subject of the next data set is articular cartilage. Description: Safranin-O histology of tibiae, medial meniscal transection model. The note with it: 3 weeks following MMT injury. The format is in vivo, Sprague-Dawley rats. The text has this: Medial meniscal transection (MMT) injury was induced using a similar method to previously established protocols. Willett N. J. et al., Arthritis Res Ther. 2014; 16(1):R47. Male Sprague-Dawley rats (250-300 g initial weight and 8-10 weeks old) were used in accordance with protocols approved by the Georgia Institute of Technology Institutional Animal Care and Use Committee. Prior to surgery animals were anesthetized by 5% isoflurane (Isothesia), followed by 2-3% isoflurane during surgery and were administered sustained release buprenorphine as an analgesic. Next, a small incision was made through the skin on the medial aspect of the left femoral-tibial joint. The medial collateral ligament was exposed by blunt dissection and transected to visualize the joint space and medial meniscus. The meniscus was then transected completely at its narrowest point. The skin was sutured with 4.0 silk sutures (Ethicon) and then closed using wound clips.
For TSG-6 loaded MP treatment, MPs were loaded as described above but 3.6 mg MPs were resuspended in a total volume of 50 μL sterile 0.1 wt % BSA PBS solution and subsequently loaded into sterile syringes. 1, 7, and 15 days following MMT injury, MPs were delivered via intra-articular injection through the infrapatellar ligament and into the stifle joint of the left leg. For soluble TSG-6 controls, 16.7 μg TSG-6 was dissolved in a total volume of 50 μL sterile 0.1 wt % BSA PBS solution, loaded into sterile syringes, and delivered using the same method as TSG-6 loaded MPs. Overall, in vivo experimental groups included TSG-6 loaded MPs (18 μg TSG-6 loaded onto 10.8 mg MPs delivered over 3 time points; n=3), soluble TSG-6 (50 μg TSG-6 delivered over 3 time points; n=3) or injury only (no TSG-6 or MPs; n=4). Contralateral tibiae served as uninjured controls.
Following μCT, tibiae were decalcified in Cal-Ex II (Fisher) for 10 days, then processed for histology sectioning as described previously. Tellier L. E. et al. Localized SDF-1 Delivery Increases Pro-Healing Bone Marrow-Derived Cells in the Supraspinatus Muscle Following Severe Rotator Cuff Injury. […]

Data set [2] relates to articular cartilage of the medial tibial plateau. Nature of the data set: EPIC-μCT of tibial articular cartilage, medial meniscal transection model. Format: in vivo, Sprague-Dawley rats.
[3] abbreviates: TSG-6 with soluble heparin derivative, or TSG-6 alone.
Where [4] appears, read: 21 days following MMT injury, compared to uninjured control.

As for `CCCCCCCCc1ccc(CCC(N)(CO)CO)cc1` [FTY720], in data set [1] (of the originally added amount of FTY720, 5, 10, 20 μg added), the “Loading efficiency of FTY720” value is on record as 35-80%. The “Total amount of FTY720 released from MPs” value in data set [1] (over 7 days, dependent on amount originally added) lay in the range of 0.5 to 5 µg.

Take “fully desulfated heparin [Hep−, reference compound]”: the “Plasmin activity compared to plasmin control” value with plasmin (setting [3]) was 69.6±1.2%. In addition, the “Effect on TSG-6 anti-plasmin activity compared to TSG-6 alone” value in the data set with plasmin (soluble heparin derivatives, in words) is recorded as “no significant effect”.

“soluble TSG-6: human TNF-α-stimulated gene-6, positively charged 35 kDa protein (R&D Systems)”: the “Plasmin activity compared to plasmin control” value with plasmin (setting [3]) is reported as 74.6±0.2%. In the data set on plasmin (day 1 release supernatant or soluble control, 11 ng/mL TSG-6), the “Plasmin activity compared to plasmin control” value was determined as 96.4±3.1%. For the same compound, in the data set on articular cartilage, the “Improvement of cartilage degeneration following injury” value was “unable to improve cartilage degeneration”, the “Proteoglycan loss (Safranin-O stained sections)” value was “proteoglycan loss is observed” and the “Safranin-O staining of GAG within cartilage” value is “Less intense safranin-O staining was observed”. Besides, the “Cartilage fibrillation (contrast-enhanced μCT imaging)” value in data set [2] (3 weeks following MMT injury) is on record as “cartilage fibrillation is present”. In data set [2] (setting [4]), this compound had a Cartilage attenuation of 1.6±0.2 ×, a Cartilage thickness of 1.5±0.2 × and a Cartilage volume of 1.9±0.5 ×.
